According to US12178791B2, “Haloallylamine sulfone derivative inhibitors of lysyl oxidases and uses thereof” (Syntara Limited, priority 2018, dated 2024):
pIC50: −log10 of the molar value. Entries after “also recorded” stand apart in the source; their conditions may differ. Structures can show the parent of a compound that is named as a salt. Where two headings read alike, the source gives them in different places.

Columns and labels:
[1] = biological target: Human recombinant SSAO/VAP-1 (Homo sapiens (Human), UniProt Q16853); assay: Inhibition of human recombinant SSAO/VAP-1; assay type: biochemical
In short: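 Purified enzyme (residues 34-763, expressed in CHO Lec8 cells; 0.25 μg/mL in 0.1 M sodium phosphate pH 7.4) was preincubated with compound 30 min at 37 °C. An added mix held 600 μM benzylamine, 120 μM Amplex Red and 1.5 U/mL HRP. Fluorescence (ex 565/em 590 nm) was read every 2.5 min for 30 min at 37 °C, and IC50 was derived from kinetic slopes over 4-11-point curves.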

[2] = biological target: LOXL1 (Homo sapiens (Human), UniProt Q08397); assay: Jump dilution experiment, sustained inhibition of LOXL1; assay type: biochemical; conditions: jump dilution after 40 min at 37 °C with 10× or 30× IC50; vs non-inhibited controls;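 note: 30× IC50 used only where needed so inhibitor exceeds enzyme concentration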
In short: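 Enzyme preincubated with inhibitor at 100× the inhibition-study enzyme concentration, then diluted 50× in assay buffer and 2× in Amplex Red–HRP–putrescine mix. Fluorescence read; activity expressed as % signal recovery after a set time versus uninhibited controls.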

[3] = In vivo pharmacokinetics, plasma concentration after p.o. dosing; design: species or system Wistar rats; conditions: for concentration at 0.25 h / concentration at 0.5 h / concentration at 1 h / concentration at 2 h / concentration at 3 h / concentration at 5 h / concentration at 8 h / concentration at 4 h: male, Wistar, plasma, po, rat; for concentration at 0.5 h: 0.50 hours; for plasma concentrations relative to the IC50: rat plasma, after 8 hours
Description: Test compounds (10 mg/kg and 30 mg/kg in PBS, p.o. n=3) were administered to 7-9 weeks old male Wistar rats. Test compound blood samples were collected at time points from 0.25 h-8.00 h (Compound 1); 0.5 h-8.00 h (Compound 33) post administration, from tail vein.
Sample preparation: 20 μL of calibration samples (in single), QC samples (in duplicate) and rat plasma samples were mixed with 60 μL acetonitrile containing internal standard (IS; 200 ng/mL of tolbutamide and 50 ng/mL propanolol) in Eppendorf tubes. The mixture was vortexed for 1 min, then centrifuged for 10 min, 50 μL of supernatant was transferred to a 96 well-plate with 100 μL water. After shaking for 10 min, 10 μL was injected into the liquid chromatography mass spectrometry (LC-MS/MS) system for analysis.
HPLC: Agilent 1100; Mass Spectrometer: API 4000
Column: Phenomenex Gemini C18 5 μm 50×4.6 mm
Mobile phase: 0.1% formic acid in water, 0.1% formic acid in acetonitrile
HPLC: Shimadzu LC30AD; Mass Spectrometer: API 4000
For dilution samples: 10 μL sample was added to 90 μL blank rat plasma. The mixture was precipitated with 300 μL acetonitrile containing IS in Eppendorf tubes. The mixture was vortexed for 1 min, then centrifuged for 10 min, 50 μL supernatant was transferred to a 96 well-plate with 100 μL water. After shaking for 10 min, 10 μL was injected into the LC-MS/MS system for analysis. Determined, mean plasma concentrations for Compounds 1 and 33 are shown in Table 5 and Table 6 respectively.

[4] = system: lysyl oxidase; assay: Target engagement: lysyl oxidase activity, ear slice assay; assay type: in vivo, Wistar rats
Description: The ears, collected right after sacrifice of the rats (treated or untreated with a LOX inhibitor), were snap frozen in dry ice for −80° C. storage. For the assay, 5×5 mm samples were cut (still half-thawed), embedded in agarose gel and cut in cross sections […] thick (vibratome). The thin sections were collected in ice cold PBS containing protease inhibitors, and allowed to rest in the bath for 2-3 hours, to allow soluble contaminants to diffuse away prior to the assay. For a 96 well plate format: three thin slices were collected, gently blotted dry on Kimwipe, and transferred to each well containing 100 μl of assay buffer (1.2 M urea, 50 mM sodium borate buffer, pH 8.2), for a 30 minute pre-incubation at 37° C. in presence of 1 μM mofegiline and 500 μM pargyline. BAPN (500 μM) had been added to all the “low control” wells. A minimum of three replicas were performed for each condition.
After pre-incubation, 100 μl of Amplex Red-horseradish peroxidase (HRP) mix (120 μM Amplex Red, 1.5 U/mL HRP, 20 mM putrescine) were added to all wells, and the plate was read at 37° C. every 2.5 minutes for 13 times, (544 nm excitation and 590 nm emission, on a BMG Clariostar, in orbital, top reading mode). The slope of the kinetic curves, subtracted by the values obtained in the low controls (in presence of BAPN), was considered a measure of the specific lysyl oxidase activity in the sample.
Young male Wistar rats were given a single oral dose (10 or 30 mg/kg) of Compounds 1 or 33 (Table 5 and 6 respectively) and the enzymatic activity was measured in tissues with a high basal activity at this age, in the ear (FIGS. 2a and b; Compound 1 and 33 respectively) and aorta (FIG. 3c; Compound 33 only). The responses were normalised to the activity measured in animals treated with saline (control).

[5] = 30 min preincubation at 37 °C, benzylamine 600 μM, read-out: SSAO/VAP-1 Activity IC50

Chain of Human recombinant SSAO/VAP-1 (Q16853 34-763): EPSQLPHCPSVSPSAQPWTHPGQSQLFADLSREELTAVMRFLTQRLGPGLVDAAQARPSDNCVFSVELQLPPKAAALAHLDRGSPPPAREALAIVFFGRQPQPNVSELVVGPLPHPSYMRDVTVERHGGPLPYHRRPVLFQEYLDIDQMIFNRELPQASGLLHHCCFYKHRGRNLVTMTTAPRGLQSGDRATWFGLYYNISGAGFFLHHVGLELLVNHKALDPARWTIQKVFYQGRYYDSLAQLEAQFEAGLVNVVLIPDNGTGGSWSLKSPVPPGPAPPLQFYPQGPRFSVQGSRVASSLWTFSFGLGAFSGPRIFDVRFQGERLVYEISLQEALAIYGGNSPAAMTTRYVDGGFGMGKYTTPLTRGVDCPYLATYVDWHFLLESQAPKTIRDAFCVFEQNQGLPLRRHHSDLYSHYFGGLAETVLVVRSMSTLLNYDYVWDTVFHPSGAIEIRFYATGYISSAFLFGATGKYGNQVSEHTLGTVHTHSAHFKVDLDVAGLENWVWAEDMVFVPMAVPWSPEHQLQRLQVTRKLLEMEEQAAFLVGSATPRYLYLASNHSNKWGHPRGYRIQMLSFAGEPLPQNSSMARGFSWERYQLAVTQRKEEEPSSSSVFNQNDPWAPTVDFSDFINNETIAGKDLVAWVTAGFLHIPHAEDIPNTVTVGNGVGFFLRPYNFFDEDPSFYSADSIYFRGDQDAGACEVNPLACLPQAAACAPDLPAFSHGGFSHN
Chain of LOXL1 (Q08397 96-574, species assumed): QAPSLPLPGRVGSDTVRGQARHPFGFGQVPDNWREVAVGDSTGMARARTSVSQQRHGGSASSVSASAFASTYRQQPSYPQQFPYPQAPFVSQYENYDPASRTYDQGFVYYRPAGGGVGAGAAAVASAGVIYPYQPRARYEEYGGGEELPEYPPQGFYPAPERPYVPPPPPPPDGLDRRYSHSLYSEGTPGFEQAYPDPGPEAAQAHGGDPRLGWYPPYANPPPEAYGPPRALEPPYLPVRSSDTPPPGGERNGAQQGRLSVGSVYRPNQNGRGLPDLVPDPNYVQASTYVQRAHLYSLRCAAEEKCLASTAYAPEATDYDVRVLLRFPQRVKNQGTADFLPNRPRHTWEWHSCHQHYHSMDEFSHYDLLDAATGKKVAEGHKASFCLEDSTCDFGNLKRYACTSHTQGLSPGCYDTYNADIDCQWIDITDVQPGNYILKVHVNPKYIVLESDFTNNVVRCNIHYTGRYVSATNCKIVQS

## NC/C=C(\F)CS(=O)(=O)c1ccccc1 [Compound 1, (Z)-3-fluoro-4-(phenylsulfonyl)but-2-en-1-amine hydrochloride]
[1]; [5]
  pIC50: < 4.52
[1]; second Table 6 (Example 38), read-out: Recombinant human SSAO (rhSSAO) inhibition (IC50)
  pIC50: < 4.00
[2]
  LOXL1 - Recovery of activity. (%): 2.4%
[3]; 10 mg/kg p.o.
  concentration at 0.25 h: 379 ng/mL
  concentration at 0.5 h: 736 ng/mL
  concentration at 1 h: 450 ng/mL
  concentration at 2 h: 134 ng/mL
  concentration at 3 h: 66.4 ng/mL
  concentration at 5 h: 27.2 ng/mL
  concentration at 8 h: 6.4 ng/mL
[3]; 30 mg/kg p.o.
  concentration at 0.25 h: 1060 ng/mL
  concentration at 0.5 h: 2090 ng/mL
  concentration at 1 h: 1200 ng/mL
  concentration at 2 h: 657 ng/mL
  concentration at 3 h: 238 ng/mL
  concentration at 5 h: 41.3 ng/mL
  concentration at 8 h: 13.5 ng/mL
[3]
  plasma concentrations relative to the IC50: far below the IC50
[4]; 24 hours after single oral dose at 10 and 30 mg/kg, vs saline control, hydrochloride
  LOX activity in rat ear: dose-dependent block; also recorded: dose dependent, sustained reduction

## NC/C=C(\F)CS(=O)(=O)c1cccc2cccnc12 [Compound 33, (Z)-3-fluoro-4-(quinolin-8-ylsulfonyl)but-2-en-1-amine dihydrochloride]
[1]; [5]
  pIC50: < 5.00
[2]
  LOXL1 - Recovery of activity. (%): 4.5%
[3]; 10 mg/kg p.o.
  concentration at 0.5 h: 771 ng/mL
  concentration at 1 h: 548 ng/mL
  concentration at 2 h: 246 ng/mL
  concentration at 4 h: 56.4 ng/mL
  concentration at 8 h: 8.4 ng/mL
[3]; 30 mg/kg p.o.
  concentration at 0.5 h: 3710 ng/mL
  concentration at 1 h: 3010 ng/mL
  concentration at 2 h: 1470 ng/mL
  concentration at 4 h: 185 ng/mL
  concentration at 8 h: 13.7 ng/mL
[3]
  plasma concentrations relative to the IC50: far below the IC50
[4]; single high (30 mg/kg) oral dose
  lysyl oxidase activity in rat tissue: completely abolish
[4]; single oral dose 30 mg/kg
  half-life of recovery of lysyl oxidase activity (ear): 48 to 72 h
